Results taken from US9221814B2, “Heterocyclic guanidine F1F0-atpase inhibitors and therapeutic uses thereof” (Lycera Corporation, priority 2012, dated 2015).

Legend:
Ramos cells = assay: Cytotoxicity in Ramos cells; assay type: cell-based; details: Homo sapiens, detection limit EC50=16 μM, read-out: Ramos Cell EC50
Description: (§1) Exemplary compounds described in above Examples were tested for activity against F1F0-ATPase by measuring the ability of the compounds to inhibit ATP synthesis. In addition, the compounds were assessed for cytotoxicity in Ramos cells. Inhibition of F1F0-ATPase activity in synthesizing ATP and cytotoxicity in Ramos cells were measured according to the procedures described in K. M. Johnson et al. Chemistry & Biology 2005, 12, 485-496.

F1F0-ATPase = biological target: T1, F1F0-ATPase (Bos taurus, UniProt P13621); assay: Inhibition of F1F0-ATPase activity in synthesizing ATP (ATP synthesis inhibition); assay type: biochemical; details: detection limit IC50=16 μM, read-out: ATP Syn IC50
T1 construct: from tissue
Description: as §1

IC50 (F1F0-ATPase) [µM]	Structure (SMILES)	EC50 (Ramos cells) [µM]
< 5	Cc1cc(C(=O)/N=C(\Nc2ccc(C(F)(F)F)nc2)Nc2cccc(C(F)(F)F)c2)on1 [Compound A-233]	< 5
< 5	Cn1cc(C(=O)/N=C(/Nc2cc(F)cc(Cl)c2)Nc2cccc(O)n2)c(C(F)(F)F)n1 [Compound A-234]	< 5
< 5	Cn1nc(C(C)(C)C)cc1C(=O)N/C(=N/c1cccc(O)n1)Nc1cc(F)cc(Cl)c1 [Compound A-235]	< 5
